Test results reported in the supplement of paper PMC4858399.

How the values were obtained:
Conditions in all cases: exposure time 48 h
[1] = test system: Caenorhabditis elegans N2; assay: AC50 for larval growth inhibition (Hill fit); higher = less potent
Method in brief: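 Worms were synchronised C. elegans N2 L1 larvae, 50 per well of a 96-well plate, kept 48 h at 20°C in K-medium with killed OP50, 1% DMSO and 0.5–200 µM chemical. Size was taken as COPAS Biosort extinction, log-transformed and averaged per well, using only wells with at least 10 worms. AC50 was estimated by a constrained Hill fit with weighted genetic-algorithm regression; values outside the range are censored.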

[2] = test system: Caenorhabditis elegans N2; assay: lowest effective concentration for larval growth inhibition (size below effect threshold); higher = less potent
Method in brief: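 L1 larvae of C. elegans N2 (50 per 96-well) were grown in K-medium with killed bacteria and 1% DMSO, with the chemical at 0.5, 1, 5, 10, 50, 100 or 200 µM, for 48 h at 20°C. Per-worm extinction from the Biosort stood for size and was log-transformed into well means. For each chemical, the lowest effective concentration is the first dose where plate-adjusted mean size falls under the threshold and stays under it at the higher doses, using a threshold of 5.665.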

[3] = test system: Caenorhabditis elegans N2; assay: mean nematode size ln(EXT) after 48 h, plate-adjusted (DMSO control set to 6) (ln(EXT), control-adjusted); higher = larger nematodes / less growth inhibition
Method in brief: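 Each treatment used 4–6 wells of 50 synchronised C. elegans N2 L1 larvae, kept for 48 h at 20°C in K-medium with killed OP50, 1% DMSO and 0.5–200 µM chemical. Debris was excluded by a growth model after the Biosort measured per-worm extinction. Mean size per well came from natural-logged values and was plate-adjusted. That adjustment subtracted the vehicle control mean and then added 6.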

Row | SMILES | AC50 for larval growth inhibition [1] | lowest effective concentration [2] | mean nematode size ln(EXT) (ln) ([3]; 0.5 µM) | mean nematode size ln(EXT) (ln) ([3]; 1 µM) | mean nematode size ln(EXT) (ln) ([3]; 5 µM) | mean nematode size ln(EXT) (ln) ([3]; 10 µM) | mean nematode size ln(EXT) (ln) ([3]; 50 µM) | mean nematode size ln(EXT) (ln) ([3]; 100 µM) | mean nematode size ln(EXT) (ln) ([3]; 200 µM)
1 | COP(=S)(OC)Oc1ccc(SC)c(C)c1 [Fenthion] | 34.4 µM | 1 µM | 5.69 | 5.64 | 5.43 | 5.36 | 5.09 | 5.11 | 4.92
2 | N#Cc1nn(-c2c(Cl)cc(C(F)(F)F)cc2Cl)c(N)c1[S+]([O-])C(F)(F)F (stereo not given) [Fipronil] | > 200 µM | 10 µM | 5.96 | 5.84 | 5.92 | 5.65 | 5.59 | 5.52 | 5.17
3 | CCCCOC(=O)[C@@H](C)Oc1ccc(Oc2ccc(C(F)(F)F)cn2)cc1 [Fluazifop-P-butyl] | 98.7 µM | 100 µM | 6.18 | 6.51 | 6.31 | 6.37 | 6.22 | 5.52 | 4.99
4 | CCCCOC(=O)C(C)Oc1ccc(Oc2ccc(C(F)(F)F)cn2)cc1 (stereo not given) [Fluazifop-butyl] | 191 µM | 100 µM | 6.21 | 6.17 | 6.11 | 6.18 | 5.87 | 5.5 | 4.66
5 | O=[N+]([O-])c1cc(C(F)(F)F)c(Cl)c([N+](=O)[O-])c1Nc1ncc(C(F)(F)F)cc1Cl [Fluazinam] | 31.6 µM | 50 µM | 6.05 | 6.17 | 5.81 | 6.15 | 3.61 | 3.85 | 3.23
6 | OC(Cn1cncn1)(Cn1cncn1)c1ccc(F)cc1F [Fluconazole] | > 200 µM | 200 µM | 6.08 | 6.04 | 6.06 | 6.09 | 6.01 | 5.99 | 5.56
7 | N#Cc1c[nH]cc1-c1cccc2c1OC(F)(F)O2 [Fludioxonil] | 101 µM | 100 µM | 6.15 | 6.03 | 6.08 | 6.01 | 6.06 | 5.27 | 4.42
8 | CC(C)N(C(=O)COc1nnc(C(F)(F)F)s1)c1ccc(F)cc1 [Flufenacet] | 21.5 µM | 200 µM | 5.91 | 5.94 | 6.03 | 6.05 | 5.45 | 6.04 | 5.52
9 | CCOC(=O)COc1cc(-n2ncc(C(F)(F)F)c(C)c2=O)c(F)cc1Cl [Flufenpyr-ethyl] | > 200 µM | 200 µM | 5.85 | 5.76 | 5.8 | 5.87 | 5.88 | 5.91 | 5.57
10 | CCN(Cc1c(F)cccc1Cl)c1c([N+](=O)[O-])cc(C(F)(F)F)cc1[N+](=O)[O-] [Flumetralin] | 180 µM | 200 µM | 6.16 | 6.01 | 6 | 6.02 | 6.1 | 6.11 | 3.65
11 | CCCCCOC(=O)COc1cc(N2C(=O)C3=C(CCCC3)C2=O)c(F)cc1Cl [Flumiclorac-pentyl] | > 200 µM | 100 µM | 5.98 | 6.04 | 6.02 | 5.91 | 5.69 | 5.6 | 4.54
12 | c1ccc2c(c1)-c1cccc3cccc-2c13 [Fluoranthene] | 9.33 µM | 5 µM | 5.79 | 5.87 | 5.65 | 5.05 | 4.05 | 3.8 | 4.82
13 | CO/N=C(/C1=NOCCO1)c1ccccc1Oc1ncnc(Oc2ccccc2Cl)c1F [Fluoxastrobin] | > 200 µM | 50 µM | 5.86 | 5.94 | 6.05 | 6.07 | 5.65 | 5.6 | 5.12
14 | Cn1cc(-c2ccccc2)c(=O)c(-c2cccc(C(F)(F)F)c2)c1 [Fluridone] | 52 µM | 100 µM | 6 | 5.95 | 5.96 | 5.88 | 5.69 | 4.25 | 5.6
15 | CCCCCCC(C)OC(=O)COc1nc(F)c(Cl)c(N)c1Cl (stereo not given) [Fluroxypyr-meptyl] | 185 µM | 200 µM | 5.84 | 5.84 | 6.02 | 5.94 | 5.83 | 6.29 | 4.64
16 | Nc1c(Cl)c(F)nc(OCC(=O)O)c1Cl [Fluroxypyr] | > 200 µM | 200 µM | 5.6 | 5.62 | 5.73 | 5.61 | 5.75 | 5.78 | 5.64
17 | C[Si](Cn1cncn1)(c1ccc(F)cc1)c1ccc(F)cc1 [Flusilazole] | 43.2 µM | 5 µM | 5.73 | 5.67 | 5.55 | 5.53 | 4.57 | 3.63 | 3.47
18 | CC(C)C(=O)Nc1ccc([N+](=O)[O-])c(C(F)(F)F)c1 [Flutamide] | 112 µM | 10 µM | 5.89 | 5.88 | 5.89 | 5.62 | 4.96 | 4.82 | 4.05
19 | CC(C)Oc1cccc(NC(=O)c2ccccc2C(F)(F)F)c1 [Flutolanil] | 192 µM | 200 µM | 5.94 | 5.98 | 6.08 | 6.01 | 5.5 | 6.3 | 5.43
20 | O=C1c2ccccc2C(=O)N1SC(Cl)(Cl)Cl [Folpet] | > 200 µM | 50 µM | 5.89 | 5.98 | 5.57 | 5.84 | 5.53 | 5.55 | 5.09
